PubChem BioAssay (NCI)
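Step 1: Grow cells in 96-well plates. Step 2: Expose to compound for 48 hours at 5 concentrations. Step 3: Interpolate endpoints linearly; if unreached, use highest concentration. The concentration for 50% growth inhibition is given as GI50. TGI marks complete inhibition of growth.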

Assays:
Assay in all cases: DTP human tumour cell line panel, 48 h
[1] = test system: PC-3 prostate
[2] = test system: NCI-H226 lung
[3] = test system: SW-620 colon
[4] = test system: SNB-19 CNS
[5] = test system: LOX IMVI melanoma
[6] = test system: OVCAR-3 ovarian
[7] = test system: SK-MEL-2 melanoma
[8] = test system: OVCAR-8 ovarian
[9] = test system: NCI-H460 lung
[10] = test system: BT-549 breast
[11] = test system: KM12 colon
[12] = test system: UO-31 renal
[13] = test system: RXF 393 renal
[14] = test system: IGROV1 ovarian
[15] = test system: ACHN renal
[16] = test system: HCT-116 colon
[17] = test system: MOLT-4 leukemia
[18] = test system: HCT-15 colon
[19] = test system: M14 melanoma
[20] = test system: MDA-MB-435
[21] = test system: SR leukemia
[22] = test system: SF-268 CNS
[23] = test system: OVCAR-4 ovarian
[24] = test system: T-47D breast
[25] = test system: HS 578T breast
[26] = test system: CAKI-1 renal
[27] = test system: SF-295 CNS
[28] = test system: A549 NSCLC
[29] = test system: EKVX NSCLC
[30] = test system: U251 CNS
[31] = test system: MALME-3M melanoma
[32] = test system: DU-145 prostate
[33] = test system: SK-MEL-5 melanoma
[34] = test system: K-562 leukemia
[35] = test system: UACC-257 melanoma
[36] = test system: OVCAR-5 ovarian
[37] = test system: 786-0 renal
[38] = test system: A498 renal
[39] = test system: HCC-2998 colon
[40] = test system: SF-539 CNS
[41] = test system: RPMI-8226 leukemia
[42] = test system: UACC-62 melanoma
[43] = test system: SK-OV-3 ovarian
[44] = test system: HOP-92 NSCLC
[45] = test system: MCF7 breast
[46] = test system: TK-10 renal
[47] = test system: HT29 colon
[48] = test system: CCRF-CEM leukemia
[49] = test system: SNB-75 CNS
[50] = test system: MDA-MB-231 breast
[51] = test system: NCI/ADR-RES ovarian
[52] = test system: NCI-H23 lung
[53] = test system: HOP-62 NSCLC
[54] = test system: NCI-H522 lung
[55] = test system: HL-60(TB) leukemia
[56] = test system: SN12C renal
[57] = test system: SK-MEL-28 melanoma
[58] = test system: COLO 205 colon

O=C(Cc1ccc(/C=C/C(=O)c2ncc[nH]2)cc1)Nc1ccc(C(F)(F)F)cc1
GI50 [1]: 2.81 µM
TGI [1]: 12.4 µM
GI50 [2]: 6.11 µM
TGI [2]: 13.1 µM
GI50 [3]: 1.35 µM
TGI [3]: 5.17 µM
GI50 [4]: 2.79 µM
TGI [4]: 7.75 µM
GI50 [5]: 0.469 µM
TGI [5]: 1.02 µM
GI50 [6]: 1.09 µM
TGI [6]: 3.35 µM
GI50 [7]: 7.09 µM
TGI [7]: 16.7 µM
GI50 [8]: 7.99 µM
TGI [8]: > 33.3 µM
GI50 [9]: 3.6 µM
TGI [9]: 10.7 µM
GI50 [10]: 2.11 µM
TGI [10]: 8.28 µM
GI50 [11]: 1.11 µM
TGI [11]: 4.27 µM
GI50 [12]: 2.43 µM
TGI [12]: 6.74 µM
GI50 [13]: 3.75 µM
TGI [13]: 8.83 µM
GI50 [14]: 3.84 µM
TGI [14]: 15.9 µM
GI50 [15]: 6.33 µM
TGI [15]: 17.8 µM
GI50 [16]: 0.694 µM
TGI [16]: 1.74 µM
GI50 [17]: 2.29 µM
TGI [17]: 28.5 µM
GI50 [18]: 1.04 µM
TGI [18]: 4.79 µM
GI50 [19]: 2.58 µM
TGI [19]: 9.25 µM
GI50 [20]: 2.87 µM
TGI [20]: 11.6 µM
GI50 [21]: 0.843 µM
TGI [21]: > 33.3 µM
GI50 [22]: 3.05 µM
TGI [22]: 9.53 µM
GI50 [23]: 5.12 µM
TGI [23]: 22.1 µM
GI50 [24]: 3.97 µM
TGI [24]: 12.3 µM
GI50 [25]: 5.88 µM
TGI [25]: > 33.3 µM
GI50 [26]: 4.43 µM
TGI [26]: 9.47 µM
GI50 [27]: 4.08 µM
TGI [27]: 9.3 µM
GI50 [28]: 6.37 µM
TGI [28]: 27.1 µM
GI50 [29]: 5.57 µM
TGI [29]: 14.6 µM
GI50 [30]: 1.22 µM
TGI [30]: 4.11 µM
GI50 [31]: 5.18 µM
TGI [31]: 12.9 µM
GI50 [32]: 2.13 µM
TGI [32]: 6.3 µM
GI50 [33]: 5.55 µM
TGI [33]: 10.2 µM
GI50 [34]: 1.24 µM
TGI [34]: > 33.3 µM
GI50 [35]: 7.2 µM
TGI [35]: 16.1 µM
GI50 [36]: 4.89 µM
TGI [36]: 10.2 µM
GI50 [37]: 1.4 µM
TGI [37]: 6.07 µM
GI50 [38]: 4.73 µM
TGI [38]: 10 µM
GI50 [39]: 3.97 µM
TGI [39]: 8.61 µM
GI50 [40]: 4.52 µM
TGI [40]: 9.25 µM
GI50 [41]: 0.78 µM
TGI [41]: 1.83 µM
GI50 [42]: 4.47 µM
TGI [42]: 9.44 µM
GI50 [43]: 7.66 µM
TGI [43]: 26.3 µM
GI50 [44]: 4.89 µM
TGI [44]: 11.1 µM
GI50 [45]: 0.851 µM
TGI [45]: 4.31 µM
GI50 [46]: 6.63 µM
TGI [46]: 13.8 µM
GI50 [47]: 1.09 µM
TGI [47]: 4.47 µM
GI50 [48]: 1.55 µM
TGI [48]: > 33.3 µM
GI50 [49]: 3.97 µM
TGI [49]: 9.12 µM
GI50 [50]: 2.79 µM
TGI [50]: 8.55 µM
GI50 [51]: 8.96 µM
TGI [51]: > 33.3 µM
GI50 [52]: 3.42 µM
TGI [52]: 9.26 µM
GI50 [53]: 4.8 µM
TGI [53]: 12 µM
GI50 [54]: 4.87 µM
TGI [54]: 12.4 µM
GI50 [55]: 2.03 µM
TGI [55]: 20 µM
GI50 [56]: 1.87 µM
TGI [56]: 8.02 µM
GI50 [57]: 5.32 µM
TGI [57]: 11.1 µM
GI50 [58]: 5.38 µM
TGI [58]: 11.8 µM
